According to the CheMixHub drug solubility set:

Assay: xn = mol fraction of the nth substance listed, in the solute-free solvent

c1ccc(-c2ccc(C(c3ccccc3)n3ccnc3)cc2)cc1 (stereo not drawn) + CC(O)CO + O
solubility (g/100 g solution)
Conditions	278.15 K	283.15 K	288.15 K	293.15 K	298.15 K	303.15 K	308.15 K	313.15 K	318.15 K
x2 = 0.02564	0.0702	0.0956	0.129	0.168	0.2	0.272	0.357	0.437	0.544
x2 = 0.0559	0.223	0.3	0.398	0.511	0.608	0.812	1.05	1.27	1.56
x2 = 0.09214	0.441	0.588	0.777	0.991	1.18	1.56	2	2.41	2.96
x2 = 0.1364	0.633	0.843	1.11	1.42	1.71	2.23	2.85	3.45	4.22
x2 = 0.1915	0.747	0.998	1.32	1.73	2.16	2.74	3.47	4.21	5.14
x2 = 0.2621	0.794	1.06	1.41	1.82	2.24	2.91	3.71	4.55	5.62
x2 = 0.3559	0.86	1.14	1.5	1.93	2.42	3.13	4	4.89	5.95
x2 = 0.4865	0.859	1.2	1.6	2.03	2.59	3.24	3.98	4.95	6.18
x2 = 0.6806	0.776	1.06	1.42	1.94	2.58	3.33	4.25	5.2	6.23

c1ccc(-c2ccc(C(c3ccccc3)n3ccnc3)cc2)cc1 (stereo not drawn) + CO + O
solubility (g/100 g solution)
Conditions	278.15 K	283.15 K	288.15 K	293.15 K	298.15 K	303.15 K	308.15 K	313.15 K	318.15 K
x2 = 0.05881	0.0843	0.114	0.153	0.198	0.236	0.32	0.418	0.51	0.631
x2 = 0.1233	0.301	0.4	0.525	0.671	0.792	1.05	1.35	1.63	1.98
x2 = 0.1942	0.641	0.845	1.1	1.39	1.74	2.21	2.78	3.35	3.94
x2 = 0.2727	0.98	1.28	1.66	2.1	2.5	3.23	4.06	4.89	5.86
x2 = 0.3599	1.23	1.68	2.17	2.73	3.35	4.17	5.19	6.23	7.39
x2 = 0.4576	1.42	1.87	2.41	3.07	3.72	4.76	5.94	7.21	8.64
x2 = 0.5675	1.6	2.11	2.72	3.56	4.38	5.54	6.87	8.37	9.89
x2 = 0.6923	1.81	2.39	3.08	3.95	4.89	6.2	7.71	9.46	11.3
x2 = 0.835	2.04	2.8	3.67	4.72	5.88	7.29	8.87	10.8	12.9

CCOC(=O)OC1=C(c2cc(C)ccc2C)C(=O)NC12CCC(OC)CC2 (stereo not drawn) + CC(C)O + O
solubility (g/100 g solution)
Conditions	278.15 K	283.15 K	288.15 K	293.15 K	298.15 K	303.15 K	308.15 K	313.15 K	318.15 K
x2 = 0.2	0.638	0.86	1.19	1.61	2.18	2.85	3.73	4.8	6.15
x2 = 0.4	2.55	2.99	3.88	5	6.36	8.23	10.4	13.1	16.5
x2 = 0.6	3.11	3.92	5.04	6.01	7.67	9.71	12.3	15.4	19.1
x2 = 0.8	2.53	3.07	3.85	5.03	6.44	8.1	10.2	13.2	16.5

NC(=O)NC1NC(=O)NC1=O (stereo not drawn) + OCCO + O
solubility (g/100 g solution)
Conditions	288.15 K	293.15 K	298.15 K	303.15 K	308.15 K	313.15 K	318.15 K	323.15 K	328.15 K	333.15 K
x2 = 0.075	0.367	0.468	0.57	0.749	0.887	1.12	1.37	1.67	1.93	2.38
x2 = 0.177	0.387	0.478	0.581	0.732	0.858	1.02	1.24	1.47	1.75	2.09
x2 = 0.327	0.439	0.481	0.62	0.747	0.847	1	1.17	1.43	1.67	1.88
x2 = 0.564	0.406	0.49	0.601	0.725	0.819	0.962	1.1	1.29	1.44	1.7
x2 = 0.744	0.466	0.515	0.628	0.712	0.779	0.924	1.03	1.2	1.33	1.54
